Measured values published in publication PMC12028158, “Synthesis and In Vitro Evaluation of the Anticancer Effect of Novel Phosphonium Vindoline Derivatives” (International Journal of Molecular Sciences, 2025).
Like-named read-outs stand apart in the source and are kept apart here.

Legend:
Format in all cases: cell-based
SR [1] = experiment: NCI60 five-dose screen; details: Homo sapiens
HOP-62 [2] = experiment: NCI60 five-dose screen; details: Homo sapiens
NCI-H23 = experiment: NCI60 five-dose screen; details: Homo sapiens
HT29 = experiment: NCI60 five-dose screen; details: Homo sapiens, HT-29
SW-620 = experiment: NCI60 five-dose screen; details: Homo sapiens
SF-295 [3] = experiment: NCI60 five-dose screen; details: Homo sapiens
LOX IMVI = experiment: NCI60 five-dose screen; details: Homo sapiens
SK-MEL-5 = experiment: NCI60 five-dose screen; details: Homo sapiens
OVCAR-3 = experiment: NCI60 five-dose screen; details: Homo sapiens
786-0 = experiment: NCI60 five-dose screen; details: Homo sapiens
PC-3 = experiment: NCI60 five-dose screen; details: Homo sapiens
DU-145 = experiment: NCI60 five-dose screen; details: Homo sapiens
T-47D = experiment: NCI60 five-dose screen; details: Homo sapiens, T47D
MDA-MB-468 = experiment: NCI60 five-dose screen; details: Homo sapiens
[4] = test system: 60 human tumor cell lines (NCI60); experiment: NCI60 five-dose screen, overall mean
HL-60(TB) = experiment: NCI60 one-dose screen; details: Homo sapiens
K-562 = experiment: NCI60 one-dose screen; details: Homo sapiens
MOLT-4 = experiment: NCI60 one-dose screen; details: Homo sapiens
SR [5] = experiment: NCI60 one-dose screen; details: Homo sapiens, read-out: Growth percent
A549/ATCC = experiment: NCI60 one-dose screen; details: Homo sapiens
HOP-62 [6] = experiment: NCI60 one-dose screen; details: Homo sapiens
NCI-H322M = experiment: NCI60 one-dose screen; details: Homo sapiens, read-out: Growth percent
HCT-116 = experiment: NCI60 one-dose screen; details: Homo sapiens
KM12 = experiment: NCI60 one-dose screen; details: Homo sapiens
SF-268 = experiment: NCI60 one-dose screen; details: Homo sapiens
SF-295 [7] = experiment: NCI60 one-dose screen; details: Homo sapiens
SNB-19 = experiment: NCI60 one-dose screen; details: Homo sapiens
M14 = experiment: NCI60 one-dose screen; details: Homo sapiens
MDA-MB-435 = experiment: NCI60 one-dose screen; details: Homo sapiens
SK-MEL-28 = experiment: NCI60 one-dose screen; details: Homo sapiens
A498 = experiment: NCI60 one-dose screen; details: Homo sapiens
ACHN = experiment: NCI60 one-dose screen; details: Homo sapiens, read-out: Growth percent
UO-31 = experiment: NCI60 one-dose screen; details: Homo sapiens
HS 578T = experiment: NCI60 one-dose screen; details: Homo sapiens, read-out: Growth percent

With `CC[C@]12C=CCN3CC[C@@]4(c5ccc(OC)cc5N(C)[C@H]4[C@@](O)(C(=O)OC)[C@@H]1OC(=O)CCCC[P+](c1ccc(F)cc1)(c1ccc(F)cc1)c1ccc(F)cc1)[C@@H]32` [10c] the GI50 (SR [1]; Leukemia, read-out: GI50) was 14.5 µM, the GI50 (HOP-62 [2]; HOP-62, Non-small Cell Lung Cancer, read-out: GI50) was 25.5 µM and the GI50 (NCI-H23; NCI-H23, Non-small Cell Lung Cancer, read-out: GI50) was 20.1 µM. It also gave a GI50 (HT29; HT29, Colon Cancer, read-out: GI50) of 15.4 µM, a GI50 (SW-620; SW-620, Colon Cancer, read-out: GI50) of 16.5 µM and a GI50 (SF-295 [3]; SF-295, CNS Cancer, read-out: GI50) of 30.6 µM. For the same molecule, the GI50 (LOX IMVI; Melanoma, read-out: GI50) was 16.8 µM, the GI50 (SK-MEL-5; SK-MEL-5, Melanoma, read-out: GI50) was 17.1 µM and the GI50 (OVCAR-3; OVCAR-3, Ovarian Cancer, read-out: GI50) was 9.3 µM. The GI50 (786-0; 786-0, Renal Cancer, read-out: GI50) was 34.1 µM, the GI50 (PC-3; PC-3, Prostate Cancer, read-out: GI50) was 16.4 µM and the GI50 (DU-145; DU-145, Prostate Cancer, read-out: GI50) was 35.4 µM. It also gave a GI50 (T-47D; T-47D, Breast Cancer, read-out: GI50) of 11.5 µM, a GI50 (MDA-MB-468; MDA-MB-468, MDA-MB-468, Breast Cancer, read-out: GI50) of 2.61 µM and a GI50 ([4]; mean over all 60 human cancer cell lines, read-out: GI50 Mean) of 24.9 µM. The activity at 10 µM (HL-60(TB); HL-60(TB), 10 μM, one-dose, read-out: Growth percent) was -32.2%, the activity at 10 µM (K-562; K562, K-562, 10 μM, one-dose, read-out: Growth percent) was 17.1% and the activity at 10 µM (MOLT-4; MOLT-4, 10 μM, one-dose, read-out: Growth percent) was 29.1%. It also gave an activity at 10 µM (SR [5]; 10 μM, one-dose) of 28.8%, an activity at 10 µM (A549/ATCC; A549/ATCC, 10 μM, one-dose, read-out: Growth percent) of 37.5% and an activity at 10 µM (HOP-62 [6]; HOP-62, 10 μM, one-dose, read-out: Growth percent) of 51%. The activity at 10 µM (NCI-H322M; 10 μM, one-dose) was 52.9%, the activity at 10 µM (HCT-116; HCT-116, 10 μM, one-dose, read-out: Growth percent) was 23.4% and the activity at 10 µM (KM12; KM12, 10 μM, one-dose, read-out: Growth percent) was 16%. The activity at 10 µM (SF-268; SF-268, 10 μM, one-dose, read-out: Growth percent) was 28.1%, the activity at 10 µM (SF-295 [7]; SF-295, 10 μM, one-dose, read-out: Growth percent) was 78.5% and the activity at 10 µM (SNB-19; SNB-19, 10 μM, one-dose, read-out: Growth percent) was 6.61%. It also gave an activity at 10 µM (M14; M14, 10 μM, one-dose, read-out: Growth percent) of 19.7%, an activity at 10 µM (MDA-MB-435; MDA-MB-435, 10 μM, one-dose, read-out: Growth percent) of -16% and an activity at 10 µM (SK-MEL-28; SK-MEL-28, 10 μM, one-dose, read-out: Growth percent) of -54.9%. For the same molecule, the activity at 10 µM (A498; A498, 10 μM, one-dose, read-out: Growth percent) was 99.2%, the activity at 10 µM (ACHN; 10 μM, one-dose) was 103% and the activity at 10 µM (UO-31; UO-31, 10 μM, one-dose, read-out: Growth percent) was 85.9%. The activity at 10 µM (HS 578T; HS 578T, 10 μM, one-dose) was -2.23%.
`CC[C@]12C=CCN3CC[C@@]4(c5ccc(OC)cc5N(C)[C@H]4[C@@](O)(C(=O)OC)[C@@H]1OC(=O)CCCC[P+](C1CCCCC1)(C1CCCCC1)C1CCCCC1)[C@@H]32` [10d] showed a GI50 (SR [1]) of 1.39 µM, a GI50 (HOP-62 [2]; HOP-62) of 3.9 µM and a GI50 (NCI-H23; NCI-H23) of 2.34 µM. For the same molecule, the GI50 (HT29) was 1.43 µM, the GI50 (SW-620; SW-620) was 2.75 µM and the GI50 (SF-295 [3]; SF-295) was 4.4 µM. The GI50 (LOX IMVI) was 2.9 µM, the GI50 (SK-MEL-5; SK-MEL-5) was 1.88 µM and the GI50 (OVCAR-3; OVCAR-3) was 1.93 µM. The GI50 (786-0; 786-0) was 5.43 µM, the GI50 (PC-3; PC-3) was 1.46 µM and the GI50 (DU-145; DU-145) was 3.65 µM. For the same molecule, the GI50 (T-47D) was 0.92 µM, the GI50 (MDA-MB-468; MDA-MB-468) was 0.378 µM and the GI50 ([4]; read-out: GI50 Mean, mean over all 60 human cancer cell lines) was 4.29 µM. The activity at 10 µM (HL-60(TB); HL-60, read-out: Growth percent) was -36.7%, the activity at 10 µM (K-562; K562, read-out: Growth percent) was 7.48% and the activity at 10 µM (MOLT-4; MOLT-4, read-out: Growth percent) was -5.16%. For the same molecule, the activity at 10 µM (SR [5]) was 19.5%, the activity at 10 µM (A549/ATCC; A549, read-out: Growth percent) was 11.7% and the activity at 10 µM (HOP-62 [6]; HOP-62, read-out: Growth percent) was 9.52%. The activity at 10 µM (NCI-H322M) was 16.1%, the activity at 10 µM (HCT-116; HCT-116, read-out: Growth percent) was 4.69% and the activity at 10 µM (KM12; KM12, read-out: Growth percent) was -71.1%. For the same molecule, the activity at 10 µM (SF-268; SF-268, read-out: Growth percent) was -70.5%, the activity at 10 µM (SF-295 [7]; SF-295, read-out: Growth percent) was -19.6% and the activity at 10 µM (SNB-19; SNB-19, read-out: Growth percent) was -71.1%. The activity at 10 µM (M14; M14, read-out: Growth percent) was -83.5%, the activity at 10 µM (MDA-MB-435; MDA-MB-435, read-out: Growth percent) was -90.5% and the activity at 10 µM (SK-MEL-28; SK-MEL-28, read-out: Growth percent) was -86.5%. The activity at 10 µM (A498; A498, read-out: Growth percent) was -0.04%, the activity at 10 µM (ACHN) was 18.7% and the activity at 10 µM (UO-31; UO-31, read-out: Growth percent) was 78.9%. For the same molecule, the activity at 10 µM (HS 578T; Hs-578T) was -35%.
